Active and inactive are the calls of the source. The calls are words filed in the database; no cut-off is given here.
Legend:
[1] = test system: LAPC4; test: Inhibition of colony formation in human LAPC4 cells at 10 uM incubated for 10 days by crystal violet staining based assay; type: functional; conditions: LAPC4, 240 h, time 10 day
[2] = test system: LAPC4; test: Inhibition of colony formation in human LAPC4 cells at 5 uM incubated for 10 days by crystal violet staining based assay; type: functional, cell-based; conditions: time 10.0 day
[3] = biological target: T1, Androgen receptor (Homo sapiens) (UniProt P10275); test: Antagonist activity at AR in human LAPC4 cells assessed as reduction in Nkx3.1 expression at 10 uM incubated for 24 hrs in presence of R1881 by Western blotting analysis; type: cell-based; conditions: filed as antagonist
T1 sequence (whole entry): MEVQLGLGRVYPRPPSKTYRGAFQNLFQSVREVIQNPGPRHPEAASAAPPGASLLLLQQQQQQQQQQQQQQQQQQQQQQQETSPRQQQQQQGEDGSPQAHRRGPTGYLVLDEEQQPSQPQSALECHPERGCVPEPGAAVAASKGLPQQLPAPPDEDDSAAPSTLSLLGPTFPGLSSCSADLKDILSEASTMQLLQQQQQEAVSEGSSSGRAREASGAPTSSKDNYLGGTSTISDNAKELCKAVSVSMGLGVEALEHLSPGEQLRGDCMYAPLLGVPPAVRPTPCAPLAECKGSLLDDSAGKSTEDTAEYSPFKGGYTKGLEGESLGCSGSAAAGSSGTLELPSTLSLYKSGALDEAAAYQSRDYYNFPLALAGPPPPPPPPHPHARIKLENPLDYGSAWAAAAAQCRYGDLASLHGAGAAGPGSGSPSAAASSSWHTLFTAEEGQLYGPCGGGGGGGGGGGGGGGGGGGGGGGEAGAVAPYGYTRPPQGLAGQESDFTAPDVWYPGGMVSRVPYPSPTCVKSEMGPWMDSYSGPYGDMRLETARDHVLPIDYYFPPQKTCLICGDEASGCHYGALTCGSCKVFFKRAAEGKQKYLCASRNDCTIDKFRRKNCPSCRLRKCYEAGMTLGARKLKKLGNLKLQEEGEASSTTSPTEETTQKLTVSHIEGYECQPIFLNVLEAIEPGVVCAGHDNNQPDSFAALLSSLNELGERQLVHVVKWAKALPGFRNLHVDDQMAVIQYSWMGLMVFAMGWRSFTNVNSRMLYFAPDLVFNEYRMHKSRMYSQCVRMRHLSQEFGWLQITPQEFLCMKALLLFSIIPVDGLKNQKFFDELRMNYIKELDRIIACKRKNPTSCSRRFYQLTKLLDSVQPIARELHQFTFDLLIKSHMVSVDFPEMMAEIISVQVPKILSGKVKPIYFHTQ

[4] = test system: DU-145; test: Cytotoxicity against human DU-145 cells assessed as cell viability at 20 uM incubated for 72 hrs by resazurin dye based microplate reader assay; type: functional; conditions: read-out: Activity
[5] = test system: CWR22R; test: Cytotoxicity against human 22Rv1 cells assessed as cell viability at 20 uM incubated for 72 hrs by resazurin dye based microplate reader assay; type: functional; conditions: read-out: Activity
[6] = test system: LAPC4; test: Cytotoxicity against human LAPC4 cells assessed as cell viability at 20 uM incubated for 72 hrs by resazurin dye based microplate reader assay; type: functional; conditions: read-out: Activity
[7] = biological target: T1, Androgen receptor (Homo sapiens); test: Antagonist activity at AR in human LAPC4 cells assessed as reduction in PSA expression at 10 uM incubated for 24 hrs in presence of R1881 by Western blotting analysis; type: cell-based; conditions: filed as antagonist
[8] = Downregulation of AR protein expression in human LAPC4 cells assessed as AR levels at 10 uM incubated for 24 hrs by immunoblotting analysis; type: functional
[9] = biological target: T1, Androgen receptor (Homo sapiens); test: Antagonist activity at AR in human LNCaP-abl cells assessed as reduction in PSA expression at 10 uM incubated for 24 hrs in presence of R1881 by Western blotting analysis; type: cell-based; conditions: filed as antagonist
[10] = biological target: T1, Androgen receptor (Homo sapiens); test: Antagonist activity at AR in human LNCaP-abl cells assessed as reduction in phosphorylation at S81 at 10 uM incubated for 24 hrs in presence of R1881 by Western blotting analysis; type: cell-based; conditions: filed as antagonist
[11] = test system: LAPC4; test: Downregulation of Nkx3.1 protein expression in human LAPC4 cells at 10 uM incubated for 24 hrs by immunoblotting analysis; type: functional, cell-based
[12] = test system: LAPC4; test: Downregulation of PSA protein expression in human LAPC4 cells at 10 uM incubated for 24 hrs by immunoblotting analysis; type: functional, cell-based

| Structure (SMILES) | inhibition at 10 µM [1] [%] | inhibition [2] | Activity [3] | viability at 20 µM [4] [%] | viability at 20 µM [5] [%] | viability at 20 µM [6] [%] | Activity [7] | Activity [8] | Activity [9] | Activity [10] | Activity [11] | Activity [12] |
| --- | --- | --- | --- | --- | --- | --- | --- | --- | --- | --- | --- | --- |
| Cn1nc2c(c1-c1ccc(Br)cc1)C[C@@]1(C)[C@@H](CC[C@@H]3[C@@H]1CC[C@]1(C)C(=O)CC[C@@H]31)C2 | 15 | Active | Active | 96 | 56 | 20 | Active | 49% |  |  |  |  |
| Cc1c2c(nn1-c1ccccc1)C[C@@H]1CC[C@@H]3[C@H](CC[C@]4(C)[C@@H](O)CC[C@@H]34)[C@@]1(C)C2 | 1 | Active | Active | 97 | 24 | 65 | Active |  |  |  |  |  |
| Cc1c2c(nn1-c1ccc(C#N)cc1)C[C@@H]1CC[C@@H]3[C@H](CC[C@]4(C)C(=O)CC[C@@H]34)[C@@]1(C)C2 | 29 | Active |  | ≥ 100 | 87 | 78 |  |  | Active | Active |  |  |
| C[C@]12Cc3c(nn(-c4ccccc4)c3-c3ccc(O)cc3)C[C@@H]1CC[C@@H]1[C@@H]2CC[C@]2(C)C(=O)CC[C@@H]12 | 39 |  |  | 94 | 57 | 67 |  | >=100% |  |  | inactive | inactive |
| C[C@]12Cc3cn(-c4ccccc4)nc3C[C@@H]1CC[C@@H]1[C@@H]2CC[C@]2(C)[C@@H](O)CC[C@@H]12 | 59 |  |  | ≥ 100 | ≥ 100 | 100 |  | >=100% |  |  | inactive | inactive |
| C[C@]12Cc3cnn(-c4ccccc4)c3C[C@@H]1CC[C@@H]1[C@@H]2CC[C@]2(C)[C@@H](O)CC[C@@H]12 | 1 |  |  | 97 | 36 | 60 |  | >=100% |  |  | Active | Active |
| Cn1nc2c(c1-c1ccco1)C[C@@]1(C)[C@@H](CC[C@@H]3[C@@H]1CC[C@]1(C)[C@@H](O)CC[C@@H]31)C2 | 2 | Active | Active | 100 | 18 | 50 | Active | 78% |  |  |  |  |
| Cc1c2c(nn1C)C[C@@H]1CC[C@@H]3[C@H](CC[C@]4(C)[C@@H](O)CC[C@@H]34)[C@@]1(C)C2 | 36 |  |  | 98 | 52 | 52 |  | 98% |  |  | inactive | inactive |
| C[C@]12Cc3cn(-c4ccc(F)cc4)nc3C[C@@H]1CC[C@@H]1[C@@H]2CC[C@]2(C)[C@@H](O)CC[C@@H]12 | 66 |  |  | ≥ 100 | ≥ 100 | 95 |  | >=100% |  |  | inactive | inactive |
| Cn1nc2c(c1-c1cccs1)C[C@@]1(C)[C@@H](CC[C@@H]3[C@@H]1CC[C@]1(C)[C@@H](O)CC[C@@H]31)C2 | 1 | Active | Active | 100 | 44 | 46 | Active | 87% |  |  |  |  |
| C[C@]12Cc3c(nn(-c4ccccc4)c3-c3ccc(Cl)cc3)C[C@@H]1CC[C@@H]1[C@@H]2CC[C@]2(C)[C@@H](O)CC[C@@H]12 | 47 |  |  | 5 | 4 | 30 |  | >=100% |  |  | inactive | inactive |
| COc1ccc(-n2cc3c(n2)C[C@@H]2CC[C@@H]4[C@H](CC[C@]5(C)[C@@H](O)CC[C@@H]45)[C@@]2(C)C3)cc1 | 65 |  |  | ≥ 100 | ≥ 100 | 99 |  | >=100% |  |  | inactive | inactive |
| Cc1ccc(-n2ncc3c2C[C@@H]2CC[C@@H]4[C@H](CC[C@]5(C)[C@@H](O)CC[C@@H]45)[C@@]2(C)C3)cc1 | 0 |  |  | 96 | 97 | 70 |  | >=100% |  |  | Active | Active |
| C[C@]12Cc3cn(-c4ccc(Br)cc4)nc3C[C@@H]1CC[C@@H]1[C@@H]2CC[C@]2(C)[C@@H](O)CC[C@@H]12 | 24 |  |  | ≥ 100 | 83 | 79 |  | >=100% |  |  | inactive | inactive |
| C[C@]12Cc3c(nn(-c4ccccc4)c3-c3ccc(O)cc3)C[C@@H]1CC[C@@H]1[C@@H]2CC[C@]2(C)[C@@H](O)CC[C@@H]12 | 22 |  |  | 57 | 37 | 63 |  | >=100% |  |  | inactive | inactive |
| Cc1c2c(nn1C)C[C@@H]1CC[C@@H]3[C@H](CC[C@]4(C)C(=O)CC[C@@H]34)[C@@]1(C)C2 | 67 |  |  | ≥ 100 | 103 | 53 |  | 86% |  |  | inactive | inactive |

— ChEMBL document CHEMBL5346877, “A-ring-fused pyrazoles of dihydrotestosterone targeting prostate cancer cells via the downregulation of the androgen receptor” (Eur J Med Chem, 2023)
